#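 A five-concentration, 48-hour dose response in 96-well plates underlies each endpoint, interpolated linearly between surrounding concentrations. GI50 is the concentration that inhibits growth by half. Definition used: TGI = concentration required for complete inhibition of growth.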
# How the values were obtained:
# Experiment in all cases: growth of human tumour cells (NCI), 48 h
# [1] = tested on: DU-145 prostate
# [2] = tested on: UACC-62 melanoma
# [3] = tested on: PC-3 prostate
# [4] = tested on: NCI-H23 lung
# [5] = tested on: HCT-116 colon
# [6] = tested on: A498 renal
# [7] = tested on: KM12 colon
# [8] = tested on: OVCAR-4 ovarian
# [9] = tested on: COLO 205 colon
# [10] = tested on: RXF 393 renal
# [11] = tested on: LOX IMVI melanoma
# [12] = tested on: MCF7 breast
# [13] = tested on: OVCAR-8 ovarian
# [14] = tested on: SNB-19 CNS
# [15] = tested on: 786-0 renal
# [16] = tested on: HOP-62 NSCLC
# [17] = tested on: OVCAR-3 ovarian
# [18] = tested on: SK-OV-3 ovarian
# [19] = tested on: OVCAR-5 ovarian
# [20] = tested on: MOLT-4 leukemia
# [21] = tested on: UO-31 renal
# [22] = tested on: HS 578T breast
# [23] = tested on: EKVX NSCLC
# [24] = tested on: UACC-257 melanoma
# [25] = tested on: MALME-3M melanoma
# [26] = tested on: SR leukemia
# [27] = tested on: SK-MEL-28 melanoma
# [28] = tested on: SK-MEL-2 melanoma
# [29] = tested on: MDA-MB-468 breast
# [30] = tested on: T-47D breast
# [31] = tested on: MDA-MB-231 breast
# [32] = tested on: SF-295 CNS
# [33] = tested on: K-562 leukemia
# [34] = tested on: SF-268 CNS
# [35] = tested on: TK-10 renal
# [36] = tested on: NCI-H460 lung
# [37] = tested on: HT29 colon
# [38] = tested on: BT-549 breast
# [39] = tested on: NCI-H522 lung
# [40] = tested on: SW-620 colon
# [41] = tested on: RPMI-8226 leukemia
# [42] = tested on: HL-60(TB) leukemia
# [43] = tested on: MDA-MB-435
# [44] = tested on: HOP-92 NSCLC
# [45] = tested on: SNB-75 CNS
# [46] = tested on: U251 CNS
# [47] = tested on: HCT-15 colon
# [48] = tested on: HCC-2998 colon
# [49] = tested on: SN12C renal
# [50] = tested on: CCRF-CEM leukemia
# [51] = tested on: M14 melanoma
# [52] = tested on: ACHN renal
# [53] = tested on: A549 NSCLC
# [54] = tested on: NCI-H226 lung
# [55] = tested on: SK-MEL-5 melanoma
# [56] = tested on: CAKI-1 renal
structure (smiles),measurement,setting,value
Cc1ccc(C(=O)Nc2ccc(-n3ccnc3)c(C(F)(F)F)c2)cc1C#Cc1cnc2cccnn12,GI50,[1],2.53 µM
same,TGI,[1],> 45.8 µM
same,GI50,[2],0.495 µM
same,TGI,[2],1.62 µM
same,GI50,[3],1.55 µM
same,TGI,[3],12.1 µM
same,GI50,[4],1.02 µM
same,TGI,[4],> 45.8 µM
same,GI50,[5],0.917 µM
same,TGI,[5],> 45.8 µM
same,GI50,[6],2.69 µM
same,TGI,[6],> 45.8 µM
same,GI50,[7],0.203 µM
same,TGI,[7],> 45.8 µM
same,GI50,[8],1.3 µM
same,TGI,[8],> 45.8 µM
same,GI50,[9],1.22 µM
same,TGI,[9],> 45.8 µM
same,GI50,[10],1.12 µM
same,TGI,[10],3.31 µM
same,GI50,[11],0.637 µM
same,TGI,[11],> 45.8 µM
same,GI50,[12],2.14 µM
same,TGI,[12],> 45.8 µM
same,GI50,[13],1.32 µM
same,TGI,[13],> 45.8 µM
same,GI50,[14],6.06 µM
same,TGI,[14],> 45.8 µM
same,GI50,[15],2.7 µM
same,TGI,[15],> 45.8 µM
same,GI50,[16],1.36 µM
same,TGI,[16],> 45.8 µM
same,GI50,[17],2.38 µM
same,TGI,[17],> 45.8 µM
same,GI50,[18],5.18 µM
same,TGI,[18],> 45.8 µM
same,GI50,[19],1.02 µM
same,TGI,[19],> 45.8 µM
same,GI50,[20],0.822 µM
same,TGI,[20],3.51 µM
same,GI50,[21],0.702 µM
same,TGI,[21],> 45.8 µM
same,GI50,[22],0.713 µM
same,TGI,[22],2.93 µM
same,GI50,[23],3.11 µM
same,TGI,[23],> 45.8 µM
same,GI50,[24],1.19 µM
same,TGI,[24],> 45.8 µM
same,GI50,[25],0.198 µM
same,TGI,[25],1.72 µM
same,GI50,[26],1.33 µM
same,TGI,[26],> 45.8 µM
same,GI50,[27],0.79 µM
same,TGI,[27],5.78 µM
same,GI50,[28],0.458 µM
same,TGI,[28],2.51 µM
same,GI50,[29],1.57 µM
same,TGI,[29],> 45.8 µM
same,GI50,[30],0.943 µM
same,TGI,[30],4.11 µM
same,GI50,[31],0.331 µM
same,TGI,[31],3.21 µM
same,GI50,[32],1.27 µM
same,TGI,[32],> 45.8 µM
same,GI50,[33],0.00458 µM
same,TGI,[33],> 45.8 µM
same,GI50,[34],1.98 µM
same,TGI,[34],> 45.8 µM
same,GI50,[35],2.91 µM
same,TGI,[35],> 45.8 µM
same,GI50,[36],1.73 µM
same,TGI,[36],> 45.8 µM
same,GI50,[37],0.915 µM
same,TGI,[37],> 45.8 µM
same,GI50,[38],1.42 µM
same,TGI,[38],4.08 µM
same,GI50,[39],0.851 µM
same,TGI,[39],3.36 µM
same,GI50,[40],1.19 µM
same,TGI,[40],> 45.8 µM
same,GI50,[41],0.83 µM
same,TGI,[41],3.6 µM
same,GI50,[42],0.215 µM
same,TGI,[42],1.54 µM
same,GI50,[43],1.1 µM
same,TGI,[43],> 45.8 µM
same,GI50,[44],0.702 µM
same,TGI,[44],3.1 µM
same,GI50,[45],0.69 µM
same,TGI,[45],5.75 µM
same,GI50,[46],3.66 µM
same,TGI,[46],> 45.8 µM
same,GI50,[47],1.29 µM
same,TGI,[47],> 45.8 µM
same,GI50,[48],1.13 µM
same,TGI,[48],> 45.8 µM
same,GI50,[49],1.06 µM
same,TGI,[49],> 45.8 µM
same,GI50,[50],1.38 µM
same,TGI,[50],> 45.8 µM
same,GI50,[51],0.567 µM
same,TGI,[51],> 45.8 µM
same,GI50,[52],1.64 µM
same,TGI,[52],20.5 µM
same,GI50,[53],1.82 µM
same,TGI,[53],> 45.8 µM
same,GI50,[54],0.567 µM
same,TGI,[54],14.4 µM
same,GI50,[55],1.27 µM
same,TGI,[55],4.92 µM
same,GI50,[56],1.42 µM
same,TGI,[56],16 µM
O=C(N/N=C/c1ccco1)c1[nH]c2ccc(Br)cc2c1-c1ccccc1,GI50,[29],0.22 µM
same,TGI,[29],2.4 µM
COc1ccc(-c2nc(/C=C3\SC(=NCc4ccccc4)NC3=O)c3ccccn23)cc1,GI50,[29],1.9 µM
same,TGI,[29],4.39 µM

# — PubChem BioAssay (NCI)
